# Test results taken from ChEMBL document CHEMBL4610078, “Bioactive Azepine-Indole Alkaloids from Psychotria nemorosa” (J Nat Prod, 2020).
# Activity calls are given as the source filed them. The rule behind the calls is not given here.
# How the values were obtained:
# [1] = biological target: T1, Amine oxidase [flavin-containing] B (Homo sapiens, UniProt P27338); conditions: 0.5 h, read-out: INH
# T1 sequence (P27338 whole entry): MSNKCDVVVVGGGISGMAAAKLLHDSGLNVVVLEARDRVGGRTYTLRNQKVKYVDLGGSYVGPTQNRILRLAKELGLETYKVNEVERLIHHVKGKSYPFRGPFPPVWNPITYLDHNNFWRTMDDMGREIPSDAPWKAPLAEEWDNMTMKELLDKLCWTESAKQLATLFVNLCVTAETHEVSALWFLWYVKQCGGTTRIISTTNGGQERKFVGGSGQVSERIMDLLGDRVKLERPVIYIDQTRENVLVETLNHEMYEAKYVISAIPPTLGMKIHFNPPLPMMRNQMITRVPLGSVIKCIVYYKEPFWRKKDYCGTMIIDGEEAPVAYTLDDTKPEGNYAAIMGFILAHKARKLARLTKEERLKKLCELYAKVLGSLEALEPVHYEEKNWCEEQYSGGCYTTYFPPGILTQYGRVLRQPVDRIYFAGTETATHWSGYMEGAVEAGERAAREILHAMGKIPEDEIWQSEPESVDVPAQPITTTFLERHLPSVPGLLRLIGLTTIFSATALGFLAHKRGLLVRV
# Description: Inhibition of recombinant human MAO-B at 10 uM incubated for 30 mins by fluorescence-based method
# [2] = biological target: T2, Amine oxidase [flavin-containing] A (Homo sapiens, UniProt P21397)
# T2 sequence (P21397 whole entry): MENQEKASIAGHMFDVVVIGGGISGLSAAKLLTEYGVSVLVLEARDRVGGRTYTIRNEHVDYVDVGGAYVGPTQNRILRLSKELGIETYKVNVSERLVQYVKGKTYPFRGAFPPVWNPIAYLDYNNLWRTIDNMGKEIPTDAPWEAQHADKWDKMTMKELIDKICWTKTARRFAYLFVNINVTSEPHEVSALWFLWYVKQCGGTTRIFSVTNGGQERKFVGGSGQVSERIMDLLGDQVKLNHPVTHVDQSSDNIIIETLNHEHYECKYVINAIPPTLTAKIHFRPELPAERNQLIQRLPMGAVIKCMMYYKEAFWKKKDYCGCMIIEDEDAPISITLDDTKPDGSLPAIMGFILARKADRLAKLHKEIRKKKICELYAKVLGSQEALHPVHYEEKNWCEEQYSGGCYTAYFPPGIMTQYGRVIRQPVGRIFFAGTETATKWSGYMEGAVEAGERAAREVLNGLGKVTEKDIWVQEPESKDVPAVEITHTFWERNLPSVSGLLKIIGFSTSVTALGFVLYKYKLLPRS
# Description: Inhibition of recombinant human MAO-A incubated for 30 mins by fluorescence-based method
# [3] = biological target: Cholinesterase (Equus caballus) (UniProt P81908); assay: Inhibition of equine serum BChE using (S)-butyrylthiocholine iodide as substrate at 10 uM measured for 6 mins by Ellman's method
# Sequence of Cholinesterase (Equus caballus) (P81908 whole entry): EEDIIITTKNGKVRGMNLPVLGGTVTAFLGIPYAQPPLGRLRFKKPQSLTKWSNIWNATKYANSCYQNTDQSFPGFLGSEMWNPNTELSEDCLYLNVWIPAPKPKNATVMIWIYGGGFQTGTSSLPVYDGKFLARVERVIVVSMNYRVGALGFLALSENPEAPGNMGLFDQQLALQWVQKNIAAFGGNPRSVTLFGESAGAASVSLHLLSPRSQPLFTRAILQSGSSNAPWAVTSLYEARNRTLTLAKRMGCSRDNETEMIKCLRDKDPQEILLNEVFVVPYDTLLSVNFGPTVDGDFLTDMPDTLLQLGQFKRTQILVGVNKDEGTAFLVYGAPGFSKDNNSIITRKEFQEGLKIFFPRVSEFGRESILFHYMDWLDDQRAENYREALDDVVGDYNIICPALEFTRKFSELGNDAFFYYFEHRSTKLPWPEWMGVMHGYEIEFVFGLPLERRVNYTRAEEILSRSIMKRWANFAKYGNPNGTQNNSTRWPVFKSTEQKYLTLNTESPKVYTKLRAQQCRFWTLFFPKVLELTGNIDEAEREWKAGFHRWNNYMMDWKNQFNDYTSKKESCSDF
# [4] = biological target: Acetylcholinesterase (Electrophorus electricus) (UniProt O42275); assay: Inhibition of electric eel AchE using acetylthiocholine as substrate at 10 uM measured for 6 mins by Ellman's method
# Sequence of Acetylcholinesterase (Electrophorus electricus) (O42275 24-633 limits assumed): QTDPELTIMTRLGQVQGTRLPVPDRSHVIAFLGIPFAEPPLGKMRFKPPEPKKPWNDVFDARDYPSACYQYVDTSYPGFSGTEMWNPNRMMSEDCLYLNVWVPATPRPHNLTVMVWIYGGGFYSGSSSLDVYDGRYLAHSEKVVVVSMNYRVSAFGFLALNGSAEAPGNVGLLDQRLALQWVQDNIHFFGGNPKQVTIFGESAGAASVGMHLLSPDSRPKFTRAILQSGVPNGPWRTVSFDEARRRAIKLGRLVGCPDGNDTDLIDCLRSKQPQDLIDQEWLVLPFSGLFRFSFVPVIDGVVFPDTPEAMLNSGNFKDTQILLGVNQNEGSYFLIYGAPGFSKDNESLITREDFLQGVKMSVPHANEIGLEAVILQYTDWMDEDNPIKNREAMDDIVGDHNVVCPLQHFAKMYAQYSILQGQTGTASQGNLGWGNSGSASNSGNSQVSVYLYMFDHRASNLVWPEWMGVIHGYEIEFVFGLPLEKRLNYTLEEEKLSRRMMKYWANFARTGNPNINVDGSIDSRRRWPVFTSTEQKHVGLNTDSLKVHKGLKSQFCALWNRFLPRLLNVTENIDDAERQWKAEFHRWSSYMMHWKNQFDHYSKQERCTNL
Structure (SMILES),inhibition at 10 µM [1] [%],IC50 [2] [nM],inhibition [3],inhibition [4]
C#CCN(C)Cc1ccccc1 [PARGYLINE],0.14,,,
C[N+]1=Cc2c(O)ccc3[nH]cc(c23)CC1,31,900,21%,inactive
C=C[C@H]1[C@H](O[C@@H]2O[C@H](CO)[C@@H](O)[C@H](O)[C@H]2O)OC=C(C(=O)OC)[C@H]1C[C@H]1c2c(O)ccc3[nH]cc(c23)CCN1C,,> 10000,inactive,inactive
C=C[C@H]1[C@H](O[C@@H]2O[C@H](CO)[C@@H](O)[C@H](O)[C@H]2O)OC=C(C(=O)OC)[C@H]1C[C@@H]1c2c(O)ccc3[nH]cc(c23)CCN1C,,> 10000,inactive,inactive
C[N+]1([O-])CCc2c[nH]c3ccc(O)c(c23)C1 (configuration not stated),27,1400,41%,inactive
CN1CCc2c[nH]c3ccc(O)c(c23)C1,22,1400,18%,inactive
C=C[C@H]1[C@H](O[C@@H]2O[C@H](COC(=O)/C=C/c3ccc(OC)c(OC)c3)[C@@H](O)[C@H](O)[C@H]2O)OC=C(C(=O)OC)[C@H]1C[C@H]1c2c(O)ccc3[nH]cc(c23)CCN1C,,> 10000,inactive,inactive
